Measured values reported in EP4332093A1, “SALT CONTAINING PIPERAZINE POLYCYCLIC DERIVATIVE, CRYSTAL FORM THEREOF, PREPARATION METHOD THEREFOR, AND USE THEREOF” (Shanghai Hansoh Biomedical Co., Ltd., priority 2021, dated 2022).
Read-outs that look alike come from different tables or passages of the source. Values belong to the molecule of their own block, whether it stands above or below them.

How the values were obtained:
[1] = Solid stability experiment of crystal forms of salt (5 and 10 days); assay type: physicochemical
Description: About 1 mg of different crystal forms of salt were taken and placed under the conditions of light 5000lx, high temperature 60°C, high humidity 92.5%RH, high temperature and high humidity 50°C 75%RH for 5 days and 10 days. The salt content was determined by HPLC and external standard method, and the change of relevant substances was calculated by chromatographic peak area normalization method.

dopamine D3 receptor = target: T1, dopamine D3 receptor (Homo sapiens, UniProt P35462); assay: Radioligand binding assay, dopamine D3 receptor ([3H]-methylspiperone); settings: Human Dopamine D3 Receptor membrane, [3H]-methylspiperone 0.5 nM
T1 construct: purchased PerkinElmer ES-173-M400UA
Description: Determination of the binding ability of the compounds of the present invention to dopamine D3 receptor
The objective of this test example is to determine the affinity of the compounds for dopamine D3 receptor.
Experimental buffer: 50 mM Tris-HCl pH 7.4, 10 mm MgCl2; washing liquor: 50 mM Tris-HCl pH 7.4, stored at 4°C; 0.5% PEI solution: 0.5 g PEI dissolved in 100 mL ddH2O, 4°C storage of spare.
(§1) 5 µL of the test compounds (0.005 nM to 100 nM, 10 concentrations in total) and 100 µL of buffer were added to a 96-well assay plate. 1 µL of cell membrane and 300 µL of buffer were added to each well, and the plate was shaken at 600 rpm for 5 minutes. 100 µL of a mixed solution of buffer and [^3H]-methylspiperone (final concentration of 0.5 nM) was added to the reaction system per well, and the plate was shaken at 600 rpm for 5 minutes and incubated at 27°C for 30 min. The UNIFII,TER-96 GF/B filter plate pre-incubated with 0.5% PEI for 1 h was washed twice with the buffer (1 mL/well). The cell membrane suspension was added to the […]-96 GF/B filter plate, washed 4 times, and incubated at 55°C for 10 min. 40 µL of ULTIMA GOLD was added to each well, and liquid scintillation counting was carried out.
(§2) The CPM (Counts per minute) values were determined by TopCount. […] The 10 concentrations of the compound were from 100 nM to 0.005 nM after 3-fold dilution of the reaction system. The percent inhibition rate and ten-point concentration data were fitted to the parametric nonlinear logistic equation by using GraphPad prism to calculate the IC50 values of the compound.

5-HT2A receptor [2] = target: T2, 5-HT2A receptor (Homo sapiens, UniProt P28223); assay: Radioligand binding assay, 5-HT2A receptor ([3H]-Ketanserin); design: purchased PerkinElmer; settings: Human 5-HT2A Receptor membrane, [3H]-Ketanserin 2 nM; read-out: 5HT-2A Binding IC50
Description: Determination of the binding ability of the compounds of the
present invention to 5-HT2A receptor
The objective of this test example is to determine the affinity of the compounds for 5-HT2A receptor.
Experimental buffer: 50 mM Tris-HCl pH 7.4, 4 mM CaCl2; washing liquor: 50 mM Tris-HCl pH 7.4, stored at 4°C; 0.5% PEI solution: 0.5 g PEI dissolved in 100 mL ddH2O, 4°C storage of spare.
as §1, with “plate. 1.5” for “plate. 1”, “and [^3H]-Ketanserin” for “and [^3H]-methylspiperone”, “of 2” for “of 0.5”, “The […]-96” for “The UNIFII,TER-96”
as §2

D3 receptor = target: T3, D3 receptor (Homo sapiens, UniProt P35462); assay: cAMP content in cells stably expressing D3 receptors (CHO-D3, forskolin, HTRF); assay type: cell-based
T3 construct: expressed in transfected cells
Description: Determination of the effect of the compounds of the present invention on cAMP content in cells stably expressing D3 receptors
To determine the activation effect of the compounds on D3 receptor.
• 1. Preparation of the buffer: 1* HBSS + 20mM HEPES + 0.1% BSA + 500 µM IBMX. Complete medium: Ham's F12K + 10% fetal bovine serum +1* penicillin-streptomycin + 400 µg/mL G418. • 2. CHO-D3 cells were cultured in the complete medium at 37°C, 5% CO2. After TrypLE digestion, the cells were resuspended in the experimental buffer, and seeded into a 384-well cell culture plate at a seeding density of 8000 cells per well. • 3. The experimental buffer (1*HBSS, 0.1% BSA, 20 mM HEPES and 500 µM IBMX) was prepared. The compound was diluted with the buffer. 2.5 µL of the compound solution was added to each well, and the plate was incubated at 37°C for 10 minutes. The forskolin was diluted to 8 µM (8*) with the experimental buffer. 2.5 µL of the diluted 8* forskolin was added, and the plate was incubated at 37°C for 30 minutes. cAMP-d2 and Anti-cAMP-Eu^3+ were thawed, and diluted by 20-fold with the lysis buffer. 10 µL of cAMP-d2 was added to the experimental well, followed by the addition of 10 µL of Anti-cAMP-Eu^3+. The reaction plate was centrifuged at 200 g for 30 s at room temperature, and left to stand at 25°C for 1 h. Data was collected using Envision.

[3] = Pharmacokinetic assay in Balb/c mice (plasma and brain tissue); assay type: in vivo; settings: male, mouse, po, p.o. 5 mg/kg; for AUC(0-t): read-out: Area under curve AUC0-t; for Tmax: read-out: Peak time tmax; for Cmax: read-out: Plasma concentration Cmax
Description: Balb/c mice were used as test animals. The pharmacokinetic behavior in mouse body (plasma and brain tissue) of the compounds of Examples of the present invention was studied at an oral administration dose of 5 mg/kg.
Compounds of the Examples of the present invention, prepared by the applicant.
Male Balb/c mice (12 mice per group), purchased from Shanghai Jiesijie Laboratory Animal Co., LTD, with Certificate No.: SCXK (Shanghai) 2013-0006 N0.311620400001794.
The test compound was dissolved in 0.5% CMC-Na (1% Tween80) by sonication to formulate a clear solution or homogeneous suspension.
After an overnight fast, male Balb/c mice (12 mice per group) were administered p.o. with the test compound at an administration dose of 5 mg/kg and an administration volume of 10 mL/kg.
0.2 mL of blood was taken from the heart of the mouse before administration and at 1, 2, 4, 8 and 24 hours after administration, and the mice were sacrificed with CO2. The samples were stored in EDTA-K2 tubes, and centrifuged for 6 minutes at 4°C, 6000 rpm to separate the plasma. The plasma samples were stored at -80°C. Whole brain tissue was taken out, weighed, placed in a 2 mL centrifuge tube, and stored at -80°C.
• 1) 160 µL of acetonitrile was added to 40 µL of the plasma sample for precipitation, and then the mixture was centrifuged for 5 to 20 minutes at 3500 × g. • 2) 90 µL of acetonitrile containing internal standard (100 ng/mL) was added to 30 µL of the plasma and brain homogenate sample for precipitation, and then the mixture was centrifuged for 8 minutes at 13000 rpm. • 3) 70 µL of water was added to 70 µL of the treated supernatant and mixed by vortex for 10 minutes. 20 µL of the supernatant was taken to analyze the concentration of the test compound by LC/MS/MS. LC/MS/MS analytical instrument: AB Sciex API 4000 Qtrap.
• Liquid chromatography condition: Shimadzu LC-20AD pump • Chromatographic column: Agilent ZORBAX XDB-C18 (50×2.1 mm, 3.5 µm); Mobile phase: Eluent A was 0.1% formic acid in water, and Eluent B was acetonitrile • Flow rate: 0.4 mL/min • Elution time: 0-4.0 minutes, the eluent is as follows:
The main parameters of pharmacokinetics were calculated by WinNonlin 6.1. Table 17: Experimental results of pharmacokinetic assay in mice

5-HT2A receptor [4] = target: T2, 5-HT2A receptor; assay: Calcium ion mobility in cells stably expressing 5-HT2A receptors (Flp-In-CHO-5HT2A, FLIPR); assay type: cell-based; design: expressed in transfected cells; settings: Flp-In-CHO-5HT2A stable pool, 5HT stimulation
Description: Determination of the effect of the compounds of the present invention on calcium ion mobility in cells stably expressing 5-HT2A receptors
To determine the inhibitory effect of the compounds on 5-HT2A receptor.
• 1) Preparation of the buffer: 1 x HBSS, 20 mM HEPES, 2.5 mM probenecid (probenecid was 400 mM stock in 1 M NaOH), 0.1% BSA. Probenecid and BSA were added fresh on the day of the experiment. Experimental buffers include dye buffer and compound dilution buffer. • 2) Cell culture medium: Ham's F-12K + 10% fetal bovine serum + 600 µg/ml hygromycin B + 1* penicillin-streptomycin. Seeding medium: Ham's F-12K + 10% dialysis serum; Assay buffer: 1 x HBSS + 20 mM HEPES; Cell line: Flp-In-CHO-5HT2A stable pool. • 3) The cells were cultured in the complete medium at 37°C, 5% CO2 to 70%-90% confluency. The cells were digested with TrypLE, seeded to the 384-well assay plate at a density of 1 × 10^4 cells/well, and incubated for 16 to 24 hours (at least overnight). • 4) 20X Component A was thawed to room temperature, diluted to 2X working concentration (containing 5mM Probenecid) with the assay buffer, and placed at room temperature for later use. • 5) The cell culture plate was taken out and left to stand at room temperature for 10 min. […] 10 µl of diluted 5HT was add to each experimental well using FLIPR Tetra, and the values were read.
The calcium signal values were determined by FLIPR. The calculated output for each sampling time point in the experiment was the ratio of the 340/510 nm wavelength signals to 380/510 nm wavelength signals. The maximum minus minimum calculation was derived from the ratio signal curve. The percent inhibition rate and ten-point concentration data were fitted to the parametric nonlinear logistic equation by using GraphPad prism to calculate the IC50 values of the compound.

[5] = High humidity (92.5% RH), 5 Days
[6] = High temperature (60°C), 10 Days
[7] = High humidity (92.5% RH), 10 Days
[8] = High temperature (60°C), 5 Days
[9] = High temperature and high humidity (50°C 75%RH), 5 Days
[10] = High temperature and high humidity (50°C 75%RH), 10 Days

T2 sequence (P28223 whole entry): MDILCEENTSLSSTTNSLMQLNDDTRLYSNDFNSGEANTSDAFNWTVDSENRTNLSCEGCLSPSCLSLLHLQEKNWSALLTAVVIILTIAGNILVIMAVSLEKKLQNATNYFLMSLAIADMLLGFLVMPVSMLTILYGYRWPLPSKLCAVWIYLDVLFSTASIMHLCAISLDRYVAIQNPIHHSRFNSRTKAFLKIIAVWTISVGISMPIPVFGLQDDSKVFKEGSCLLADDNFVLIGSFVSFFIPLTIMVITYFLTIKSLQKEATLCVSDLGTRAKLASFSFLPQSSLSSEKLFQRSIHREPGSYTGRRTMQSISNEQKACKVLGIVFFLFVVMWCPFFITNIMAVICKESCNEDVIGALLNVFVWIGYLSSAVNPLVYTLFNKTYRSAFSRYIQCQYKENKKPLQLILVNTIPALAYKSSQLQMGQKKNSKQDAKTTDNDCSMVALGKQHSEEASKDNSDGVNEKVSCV
T3 sequence (P35462 whole entry): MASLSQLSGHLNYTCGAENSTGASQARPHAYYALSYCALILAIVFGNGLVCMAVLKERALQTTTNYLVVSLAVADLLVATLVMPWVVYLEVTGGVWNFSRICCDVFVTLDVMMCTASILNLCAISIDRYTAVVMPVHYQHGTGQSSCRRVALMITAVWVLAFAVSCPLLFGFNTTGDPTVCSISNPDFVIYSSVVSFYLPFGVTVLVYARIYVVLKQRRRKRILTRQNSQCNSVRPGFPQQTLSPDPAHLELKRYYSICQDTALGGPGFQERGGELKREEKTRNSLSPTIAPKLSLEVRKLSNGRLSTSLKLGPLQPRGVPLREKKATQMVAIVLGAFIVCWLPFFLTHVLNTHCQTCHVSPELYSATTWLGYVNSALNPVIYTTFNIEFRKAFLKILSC
T1 sequence (P35462 whole entry): as above

Compound: O=C(N[C@H]1C[C@H](CCN2CCN(c3cccc(Cl)c3Cl)CC2)C1)c1ncco1 [crystal form B of p-toluenesulfonate]
crystal form stability (single impurity) ([1]; light conditions (5000lx)): single impurity increases significantly
crystal form stability ([1]; other conditions (60°C, 92.5% RH, 50°C 75% RH)): stable

IC50 (dopamine D3 receptor): 0.62 nM
IC50 (5-HT2A receptor [2]): 44 nM
Compound: O=S(=O)(NC1CC(CCN2CCN(c3cccc(Cl)c3Cl)CC2)C1)C1CC1 (centres unmarked) [Example 11, N-(3-(2-(4-(2,3-Dichlorophenyl)piperazin-1-yl)ethyl)cyclobutyl)cyclopropanesulfon amide]

Compound: O=C(N[C@H]1C[C@H](CCN2CCN(c3cccc(Cl)c3Cl)CC2)C1)c1ncco1 [Crystal form B of p-toluene sulfonate]
Maximum single impurity increase% [1, 5]: <0.02%
Total impurity increase% [1, 5]: <0.02%
Total impurity increase% [1, 6]: <0.02%
Maximum single impurity increase% ([1]; Light (5000lx), 5 Days): 0.13%
Total impurity increase% ([1]; Light (5000lx), 5 Days): 0.03%
Maximum single impurity increase% ([1]; Light (5000lx), 10 Days): 0.13%
Total impurity increase% ([1]; Light (5000lx), 10 Days): 0.19%

Compound: O=C(N[C@H]1C[C@H](CCN2CCN(c3cccc(Cl)c3Cl)CC2)C1)c1ncco1 [Crystal form A of hydrochl oride]
Maximum single impurity increase% [1, 5]: 0.06%
Total impurity increase% [1, 5]: 0.06%
Maximum single impurity increase% [1, 7]: <0.02%
Total impurity increase% [1, 7]: <0.02%
Maximum single impurity increase% [1, 8]: <0.02%
Total impurity increase% [1, 8]: <0.02%
Maximum single impurity increase% [1, 6]: <0.02%
Total impurity increase% [1, 6]: 0.03%
Maximum single impurity increase% [1, 9]: <0.02%
Total impurity increase% [1, 9]: <0.02%
Maximum single impurity increase% [1, 10]: <0.02%
Total impurity increase% [1, 10]: <0.02%
Maximum single impurity increase% ([1]; Light (5000lx), 5 Days): <0.02%
Total impurity increase% ([1]; Light (5000lx), 5 Days): <0.02%
Maximum single impurity increase% ([1]; Light (5000lx), 10 Days): <0.02%
Total impurity increase% ([1]; Light (5000lx), 10 Days): <0.02%

EC50 (D3 receptor): 2.8 nM
AUC(0-t) ([3]; Brain): 2080 ng·h/mL
Tmax ([3]; Brain): 60 min
Cmax ([3]; Brain): 569 ng/mL
AUC(0-t) ([3]; Plasma): 503 ng·h/mL
AUC(0-inf) ([3]; Plasma, read-out: Area under curve AUC0-∞): 541 ng·h/mL
MRT ([3]; Plasma, read-out: Average residence time MRT): 2.8 h
half-life ([3]; Plasma, read-out: Half life t1/2 (converted)): 126 min
Tmax ([3]; Plasma): 30 min
Cmax ([3]; Plasma): 254 ng/mL
IC50 (5-HT2A receptor [4]): 6.44 nM
Compound: O=C(NC1CC(CCN2CCN(c3cccc(Cl)c3Cl)CC2)C1)c1nccs1 (centres unmarked) [Example 7, N-(3-(2-(4-(2,3-Dichlorophenyl)piperazin-1-yl)ethyl)cyclobutyl)thiazole-2-carboxamide]
